Values joined by “and” are separate entries in the source; they are usually repeats but may differ in a detail not shown here. Equal entries are not always repeated.
What was measured:
[1] = vaginal administration; cited from earlier work
[2] = Progesterone serum levels after topical ProGest cream in menopausal or postmenopausal women; assay type: in vivo, human; conditions: topical ProGest cream 2 ml, per patient
Experimental: An open label, controlled study was carried out in six healthy menopausal or postmenopausal women using no over-the-counter or prescription medications, medical foods or dietary supplements which would influence progesterone levels. Menopausal or postmenopausal status was determined by clinical methods. The inclusion criteria were low estrogen levels (less than or equal to 25 picograms per ml); non-use of progesterone for two weeks prior to the beginning of the study, and four weeks if medroxyprogesterone acetate was used; a body mass index less than 30; age between 40 and 65; non-smoker; at least six months after menopause (last bleeding); normal mammogram and pap smear within the past year; and reasonable reliability and client compliance. […] The cream was to be applied in 2 ml amounts on calendar days 2-15 at 8 a.m. Applications were increased to a second 2 ml application at 8 p.m. on calendar days 16-30. In addition, estrogen was applied as a […] patch. The patch used was Vivelle®, Ciba (now Novartis), Summit, N.J. The Vivelle® patch (0.05 mg/day) was applied on calendar days 0, 3, 7, 10, 14, 17, 21, 24 and 28.
Estrogen and progesterone serum levels were determined by chemiluminescence and were conducted on calendar days 2, 9, 16, 23, and 30 at times indicated.

Progesterone Levels ([2]; Week 0, 1/2 H): 1.6 Nanograms/ml | Progesterone Levels ([2]; Week 0, 1 H): 3.1 Nanograms/ml | Progesterone Levels ([2]; Week 0, 2 H): 2.8 Nanograms/ml | Progesterone Levels ([2]; Week 0, 3 H): 3.5 Nanograms/ml | Progesterone Levels ([2]; Week 0, 4 H): 3.3 Nanograms/ml | Progesterone Levels ([2]; Week 0, 6 H): 4.6 Nanograms/ml | Progesterone Levels ([2]; Week 0, 12 H): 2.4 Nanograms/ml | Progesterone Levels ([2]; Week 2, 1 H, listed as progesterone): 14.1 Nanograms/ml | concentration at 1 h ([2]; female, human, topical, Week 1, 1 H): 1 ng/mL | concentration ([2]; female, human, topical, Week 1, 3 H): 1 ng/mL
Compound: CC(=O)[C@H]1CC[C@H]2[C@@H]3CCC4=CC(=O)CC[C@]4(C)[C@H]3CC[C@]12C [P, progesterone]
local concentration of progesterone in the endometrial tissue [1]: ~7 nanograms/ml | Progesterone Levels ([2]; Week 1, 0 H): 0.43 Nanograms/ml (2×) and 0.4 Nanograms/ml and 1.5 Nanograms/ml and 1.6 Nanograms/ml and 1.9 Nanograms/ml | Progesterone Levels ([2]; Week 1, 1 H (first of two columns headed 1 H), listed as Progesterone): 1.0 Nanograms/ml and 1.5 Nanograms/ml and 1.3 Nanograms/ml and 1.6 Nanograms/ml and 2.0 Nanograms/ml | Progesterone Levels ([2]; Week 1, 1 H (second of two columns headed 1 H), listed as Progesterone): 0.84 Nanograms/ml and 1.0 Nanograms/ml and 1.4 Nanograms/ml and 1.1 Nanograms/ml and 1.3 Nanograms/ml and 2.7 Nanograms/ml | Progesterone Levels ([2]; Week 1, 2 H): 0.49 Nanograms/ml and 0.82 Nanograms/ml and 0.57 Nanograms/ml and 1.0 Nanograms/ml and 1.2 Nanograms/ml and 1.4 Nanograms/ml | Progesterone Levels ([2]; Week 1, 3 H): 0.91 Nanograms/ml and 0.94 Nanograms/ml and 1.2 Nanograms/ml and 1.7 Nanograms/ml and 1.6 Nanograms/ml | Progesterone Levels ([2]; Week 1, 4 H): 0.96 Nanograms/ml and 1.0 Nanograms/ml and 1.1 Nanograms/ml (2×) and 1.3 Nanograms/ml and 2.3 Nanograms/ml | Progesterone Levels ([2]; Week 1, 6 H): 0.98 Nanograms/ml and 1.3 Nanograms/ml (2×) and 2.0 Nanograms/ml and 1.6 Nanograms/ml (2×) | Progesterone Levels ([2]; Week 1, 12 H): 0.87 Nanograms/ml and 0.96 Nanograms/ml and 1.3 Nanograms/ml and 1.6 Nanograms/ml and 1.8 Nanograms/ml and 2.0 Nanograms/ml | Progesterone Levels ([2]; Week 2, 0 H): 0.93 Nanograms/ml and 1.2 Nanograms/ml and 0.96 Nanograms/ml and 2 Nanograms/ml and 1.7 Nanograms/ml and 3.3 Nanograms/ml | Progesterone Levels ([2]; Week 2, 1 H, listed as Progesterone): 0.82 Nanograms/ml and 0.94 Nanograms/ml and 1.2 Nanograms/ml and 1.3 Nanograms/ml and 14.1 Nanograms/ml and 2.4 Nanograms/ml | Progesterone Levels ([2]; Week 2, 2 H): 1 Nanograms/ml and 0.81 Nanograms/ml and 1.2 Nanograms/ml and 1.7 Nanograms/ml and 3.3 Nanograms/ml and 2.9 Nanograms/ml | Progesterone Levels ([2]; Week 2, 4 H): 1.1 Nanograms/ml and 1.5 Nanograms/ml and 1.2 Nanograms/ml and 2.4 Nanograms/ml and 5 Nanograms/ml and 1.8 Nanograms/ml | Progesterone Levels ([2]; Week 2, 6 H): 1 Nanograms/ml and 1.3 Nanograms/ml and 1.2 Nanograms/ml and 1.5 Nanograms/ml and 3.2 Nanograms/ml and 2.9 Nanograms/ml | Progesterone Levels ([2]; Week 2, 8 H): 0.94 Nanograms/ml and 0.83 Nanograms/ml and 1.2 Nanograms/ml and 1.1 Nanograms/ml and 3 Nanograms/ml and 2.2 Nanograms/ml | Progesterone Levels ([2]; Week 2, 12 H): 0.84 Nanograms/ml and 0.94 Nanograms/ml and 1.2 Nanograms/ml and 2.8 Nanograms/ml and 3.1 Nanograms/ml | Progesterone Levels ([2]; Week 2, 24 H): 0.81 Nanograms/ml and 2 Nanograms/ml and 1.1 Nanograms/ml and 0.98 Nanograms/ml and 2.1 Nanograms/ml
